“Also recorded” adds a separate entry of the source.
Key:
[1] = Cocaine reinstatement (relapse) after extinction of intravenous cocaine self-administration; format: in vivo, Sprague-Dawley rat; conditions: rat; for effect on cocaine-induced relapse, compared with Compound A (result in words): tested similarly
[2] = Nicotine intravenous self-administration; format: in vivo, Wistar-derived rat; conditions: rat, escalating doses 0.00, 7.5, 10 and 15 mg/kg ip, 30 min before session; Figure 1
[3] = target: T1, human mitochondrial aldehyde dehydrogenase (ALDH-2) [인간 미토콘드리아 알데히드 디히드로게나아제 (ALDH-2)] (Homo sapiens, UniProt P05091); conditions: potency and selectivity in words; cited from earlier work
T1 sequence (P05091 18-517): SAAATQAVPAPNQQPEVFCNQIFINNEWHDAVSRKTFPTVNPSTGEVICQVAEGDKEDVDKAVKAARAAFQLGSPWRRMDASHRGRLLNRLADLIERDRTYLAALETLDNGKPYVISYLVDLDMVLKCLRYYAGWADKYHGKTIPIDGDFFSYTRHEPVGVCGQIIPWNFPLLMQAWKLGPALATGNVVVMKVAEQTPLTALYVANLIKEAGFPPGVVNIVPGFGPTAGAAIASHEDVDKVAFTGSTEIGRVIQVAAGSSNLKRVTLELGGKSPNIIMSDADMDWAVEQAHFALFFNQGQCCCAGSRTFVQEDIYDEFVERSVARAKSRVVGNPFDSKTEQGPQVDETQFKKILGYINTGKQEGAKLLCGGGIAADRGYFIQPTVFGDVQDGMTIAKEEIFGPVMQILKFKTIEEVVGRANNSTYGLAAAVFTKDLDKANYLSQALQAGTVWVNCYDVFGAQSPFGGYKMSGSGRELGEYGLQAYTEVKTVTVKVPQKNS

[4] = in vivo; cited from earlier work

O=C(O)c1cccc(-c2nc(COc3ccc4c(=O)c(-c5ccc(O)cc5)coc4c3)no2)c1 [3-(3-{[3-(4-히드록시페닐)-4-옥소크로멘-7-일옥시]메틸}-1,2,4-옥사디아졸-5-일)벤조산]
effect on cocaine-induced relapse, compared with Compound A (result in words) [1]: 유사한 결과가 수득되었다

CS(=O)(=O)Nc1ccc(-c2coc3cc(OCc4cccc(C(=O)O)c4)ccc3c2=O)cc1 [3-[(3-{4-[(메틸술포닐)아미노]페닐}-4-옥소크로멘-7-일옥시)메틸]벤조산]
number of bar presses for nicotine (plotted as number of infusions) [2]: 횟수를 감소시켰다; also recorded: 바아 프레스의 횟수를 감소시키는
lever press response after cocaine priming (effect in words) ([1]; 7.5 and 10 mg/kg before priming injection of cocaine (10 mg/kg)): 지렛대 누름 반응에서 증가를 보여주지 않았다 (재발하지 않음)
cocaine relapse (effect in words) ([1]; ip, dose-dependent, cocaine priming 10 mg/kg): 투여량에 좌우되어 코카인에 대한 재발을 차단했다

O=c1c(-c2ccc(O)cc2)coc2cc(OCc3noc(-c4cc(F)cc(C(F)(F)F)c4)n3)ccc12 [7-({5-[3-플루오로-5-(트리플루오로메틸)페닐](1,2,4-옥사디아졸-3-일)}메톡시)-3-(4-히드록시페닐)크로멘-4-온]
effect on cocaine-induced relapse, compared with Compound A (result in words) [1]: 유사한 결과가 수득되었다

O=c1c(-c2ccc(O)cc2)coc2cc(O)ccc12 [다이드진]
inhibition of ALDH-2 (in words) [3]: 강력하고 선택적인 저해제
suppression of ethanol intake / absorption (in words) [4]: 에탄올 흡수 억제에 유효한

O=c1c(-c2ccc(O)cc2)coc2cc(O[C@@H]3O[C@H](CO)[C@@H](O)[C@H](O)[C@H]3O)ccc12 [다이드진 (daidzein)]
suppression of ethanol intake / absorption (in words) [4]: 에탄올 섭취 억제에 효과적인

From KR20100130589A, “중독 치료에서의 aldh-2 저해제” (질레드 팔로 알토 인코포레이티드, priority 2008, dated 2009)
